Laboratory results reported in patent US20140051679A1, “KINASE INHIBITORS AND METHOD OF TREATING CANCER WITH SAME” (UNIVERISTY HEALTH NETWORKS, priority 2011, published 2014).

Legend:
[1] = target: T1, human PLK4 (Homo sapiens, UniProt O00444); assay: PLK4 inhibition assay (indirect ELISA); type: biochemical; conditions: GST-PLK4 4 nM, 15 μM ATP; read-out: IC50 Ranges PLK4
T1 construct: amino terminal GST fusion of residues 1-391 of human PLK4; made in house; host or cells: E. coli
T1 sequence (O00444 1-391): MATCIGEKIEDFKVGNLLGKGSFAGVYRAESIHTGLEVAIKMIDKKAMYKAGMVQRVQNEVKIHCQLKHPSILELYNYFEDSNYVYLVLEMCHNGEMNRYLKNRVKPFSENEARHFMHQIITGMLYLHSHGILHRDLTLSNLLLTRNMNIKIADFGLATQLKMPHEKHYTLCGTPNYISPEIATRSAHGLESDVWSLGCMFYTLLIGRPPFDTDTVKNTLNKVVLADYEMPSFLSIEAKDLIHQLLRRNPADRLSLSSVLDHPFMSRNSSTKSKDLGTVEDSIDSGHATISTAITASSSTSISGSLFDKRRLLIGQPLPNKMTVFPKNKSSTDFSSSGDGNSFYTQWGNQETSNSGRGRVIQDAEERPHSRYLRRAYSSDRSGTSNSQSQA
Summary of the method: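 Dephosphorylated GST-tagged human PLK4 (residues 1-391, E. coli), 4 nM, preincubated 15 min with compound, then reacted 30 min with 15 μM ATP on MBP-coated plates (50 mM HEPES pH 7.5, 10 mM MgCl2, 0.01% Brij 35). Phospho-MBP detected by antibody ELISA at 450 nm. Tested at 10 μM or 10-point titrations; IC50 from 4-parameter logistic fit.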

[2] = tested on: HT29 colon cancer cells; assay: Cell growth inhibition, Sulforhodamine B assay, HT29; type: cell-based; conditions: Homo sapiens, HT-29, 120 h, 5 days culture, SRB assay, read-out: Cell Line GI50 Range HT29
[3] = tested on: MDA-MB-231 breast cancer cells; assay: Cell growth inhibition, Sulforhodamine B assay, MDA-MB-231; type: cell-based; conditions: Homo sapiens, 120 h, 5 days culture, SRB assay, read-out: Cell Line GI50 Range MDA-MB-231
[4] = tested on: HCT116 colon cancer cells; assay: Cell growth inhibition, Sulforhodamine B assay, HCT116; type: cell-based; conditions: Homo sapiens, HCT-116, 120 h, 5 days culture, SRB assay, read-out: Cell Line GI50 Range HCT116
[5] = target: T2, human TTK (Homo sapiens, UniProt P33981); assay: TTK inhibition assay (indirect ELISA); type: biochemical; conditions: GST-TTK 0.68 nM, 16 μM ATP; read-out: IC50 Ranges TTK
T2 construct: amino terminal GST fusion of full length human TTK; purchased Invitrogen
T2 sequence (P33981 1-857): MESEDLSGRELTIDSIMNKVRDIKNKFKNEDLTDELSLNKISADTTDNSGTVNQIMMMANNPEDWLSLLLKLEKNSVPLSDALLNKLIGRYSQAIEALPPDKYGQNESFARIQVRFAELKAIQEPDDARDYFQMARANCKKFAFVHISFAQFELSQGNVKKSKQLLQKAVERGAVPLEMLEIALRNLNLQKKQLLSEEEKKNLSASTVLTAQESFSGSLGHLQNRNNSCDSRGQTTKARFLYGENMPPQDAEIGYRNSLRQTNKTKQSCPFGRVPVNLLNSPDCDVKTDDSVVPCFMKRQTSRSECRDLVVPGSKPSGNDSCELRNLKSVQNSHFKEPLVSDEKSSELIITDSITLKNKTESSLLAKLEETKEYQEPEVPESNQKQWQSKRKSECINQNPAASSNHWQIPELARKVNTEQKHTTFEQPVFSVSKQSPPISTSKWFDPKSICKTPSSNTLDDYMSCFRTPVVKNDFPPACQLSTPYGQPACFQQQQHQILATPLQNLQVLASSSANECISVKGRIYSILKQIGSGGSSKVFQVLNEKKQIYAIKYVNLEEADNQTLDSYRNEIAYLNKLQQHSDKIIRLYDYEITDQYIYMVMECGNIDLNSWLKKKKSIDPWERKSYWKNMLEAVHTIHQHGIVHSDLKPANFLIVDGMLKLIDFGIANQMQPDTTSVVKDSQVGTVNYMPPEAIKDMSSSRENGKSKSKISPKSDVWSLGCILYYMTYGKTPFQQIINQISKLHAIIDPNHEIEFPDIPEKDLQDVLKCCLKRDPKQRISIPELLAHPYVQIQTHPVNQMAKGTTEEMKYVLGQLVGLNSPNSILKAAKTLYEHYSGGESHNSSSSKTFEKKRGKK

[6] = target: T3, Aurora B (Homo sapiens, UniProt Q96GD4); assay: Aurora B inhibition assay (Z-Lyte); type: biochemical; conditions: 28 nM Aurora B, 128 μM ATP; read-out: IC50 Ranges Aurora B
T3 construct: purchased Invitrogen PV3970
Protocol: Aurora B inhibition was determined using the Z-Lyte assay kit from Invitrogen. The assay was performed using the recommended manufacturer's instructions with 128 μM ATP and 28 nM Aurora B (Invitrogen cat #PV3970). The % inhibition values were determined according to the manufacturer's directions and IC50 values were obtained using a non-linear 4 point logistic curve fit (XLfit4, IDBS)

[7] = tested on: MDA-MB-468 breast cancer cells; assay: Cell growth inhibition, Sulforhodamine B assay, MDA-MB-468; type: cell-based; conditions: Homo sapiens, 120 h, 5 days culture, SRB assay, read-out: Cell Line GI50 Range MDA-MB-468
[8] = tested on: OVCAR-3 ovarian cancer cells; assay: Cell growth inhibition, Sulforhodamine B assay, OVCAR-3; type: cell-based; conditions: Homo sapiens, 120 h, 5 days culture, SRB assay, read-out: Cell Line GI50 Range OVCAR-3
[9] = tested on: PA-1 ovarian cancer cells; assay: Cell growth inhibition, Sulforhodamine B assay, PA-1; type: cell-based; conditions: 120 h, 5 days culture, SRB assay, read-out: Cell Line GI50 Range PA-1

T3 sequence (Q96GD4 whole entry): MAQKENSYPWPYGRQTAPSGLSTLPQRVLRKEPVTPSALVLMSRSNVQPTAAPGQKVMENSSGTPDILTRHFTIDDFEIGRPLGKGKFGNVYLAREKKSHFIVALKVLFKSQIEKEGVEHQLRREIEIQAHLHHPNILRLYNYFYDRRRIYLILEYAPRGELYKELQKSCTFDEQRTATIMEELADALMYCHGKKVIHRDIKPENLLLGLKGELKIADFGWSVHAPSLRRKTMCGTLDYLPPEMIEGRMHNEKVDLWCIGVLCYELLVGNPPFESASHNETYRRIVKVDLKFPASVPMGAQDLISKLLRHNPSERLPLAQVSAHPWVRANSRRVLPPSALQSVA

Compound	IC50 [1] [µM]	GI50 [2] [µM]	GI50 [3] [µM]	GI50 [4] [µM]	IC50 [5] [µM]	IC50 [6] [µM]	GI50 [7] [µM]	GI50 [8] [µM]	GI50 [9] [µM]
CN1CCC(Oc2ccc(-c3n[nH]c4ccc(NC(=O)C(c5ccsc5)C5CCCC5)cc34)cc2)CC1 (stereo not shown) [Example A36, 2-cyclopentyl-N-(3-(4-((1-methylpiperidin-4-yl)oxy)phenyl)-1H-indazol-5-yl)-2-(thiophen-3-yl)acetamide]	≤ 5	≤ 5	≤ 5	≤ 5	≤ 5	≤ 5	≤ 5	≤ 5	
C[C@H](NC(=O)c1ccc2[nH]nc(-c3ccc(OC4CCN(C)CC4)cc3)c2c1)C1CCCCC1 [Example A38, (S)—N-(1-cyclohexylethyl)-3-(4-((1-methylpiperidin-4-yl)oxy)phenyl)-1H-indazole-5-carboxamide]	≤ 5	≤ 5	≤ 5	≤ 5	≤ 5	≤ 5	≤ 5	≤ 5	
CN(C)CCCOc1ccc(-c2n[nH]c3ccc(NC(=O)C(c4ccsc4)N4CCCC4)cc23)cc1 (stereo not shown) [Example A43, N-(3-(4-(3-(dimethylamino)propoxy)phenyl)-1H-indazol-5-yl)-2-(pyrrolidin-1-yl)-2-(thiophen-3-yl)acetamide]	≤ 5	≤ 5	≤ 5	≤ 5	≤ 5	≤ 5	≤ 5	≤ 5	
O=C(Nc1ccc2[nH]nc(-c3ccc(OCCN4CCCC4)cc3)c2c1)C(c1ccsc1)N1CCCC1 (stereo not shown) [Example A44, 2-(pyrrolidin-1-yl)-N-(3-(4-(2-(pyrrolidin-1-yl)ethoxy)phenyl)-1H-indazol-5-yl)-2-(thiophen-3-yl)acetamideamide]	≤ 5	≤ 5	≤ 5	≤ 5	≤ 5	≤ 5	≤ 5	≤ 5	
O=C(Nc1ccc2[nH]nc(-c3ccc(OCCCN4CCOCC4)cc3)c2c1)C(c1ccsc1)N1CCCC1 (stereo not shown) [Example A45, N-(3-(4-(3-morpholinopropoxy)phenyl)-1H-indazol-5-yl)-2-(pyrrolidin-1-yl)-2-(thiophen-3-yl)acetamide]	≤ 5	≤ 5	≤ 5	≤ 5	≤ 5	≤ 5	≤ 5	5 to 20	
C[C@@H](NC(=O)c1ccc2[nH]nc(-c3ccc(OC4CCN(C)CC4)cc3)c2c1)c1cccs1 [Example A55, (R)-3-(4-((1-methylpiperidin-4-yl)oxy)phenyl)-N-(1-(thiophen-2-yl)ethyl)-1H-indazole-5-carboxamide]	≤ 5	≤ 5	≤ 5	≤ 5	≤ 5	≤ 5	≤ 5	≤ 5	
CN1CCC(Oc2ccc(-c3n[nH]c4ccc(NC(=O)C(c5ccsc5)N5CCCC5)cc34)cc2Cl)CC1 (stereo not shown) [Example A57, N-(3-(3-chloro-4-((1-methylpiperidin-4-yl)oxy)phenyl)-1H-indazol-5-yl)-2-(pyrrolidin-1-yl)-2-(thiophen-3-yl)acetamide]	≤ 5	≤ 5	≤ 5	≤ 5	≤ 5	≤ 5	≤ 5	≤ 5	
CC[C@@H](NC(=O)c1ccc2[nH]nc(-c3ccc(N4CCOCC4)cc3)c2c1)c1cccs1 [Example A58, (R)-3-(4-morpholinophenyl)-N-(1-(thiophen-2-yl)propyl)-1H-indazole-5-carboxamide]	≤ 5	≤ 5	≤ 5	≤ 5	≤ 5	≤ 5	≤ 5	≤ 5	
CC[C@@H](NC(=O)c1ccc2[nH]nc(-c3ccc(OC4CCN(C)CC4)cc3)c2c1)c1cccs1 [Example A63, (R)-3-(4-((1-methylpiperidin-4-yl)oxy)phenyl)-N-(1-(thiophen-2-yl)propyl)-1H-indazole-5-carboxamide]	≤ 5	≤ 5	≤ 5	≤ 5	≤ 5	≤ 5	≤ 5	≤ 5	
CCC(NC(=O)c1ccc2[nH]nc(-c3ccc(OC4CCN(C)CC4)cc3)c2c1)C1CCCCC1 (stereo not shown) [Example A69, N-(1-cyclohexylpropyl)-3-(4-((1-methylpiperidin-4-yl)oxy)phenyl)-1H-indazole-5-carboxamide]	≤ 5	≤ 5	≤ 5	≤ 5	≤ 5	≤ 5	≤ 5	≤ 5	
Cc1cc(C)c(NC(=O)Nc2ccc3[nH]nc(-c4ccc(OC5CCN(C)CC5)cc4)c3c2)c(Cl)c1 [Example A77, 1-(2-chloro-4,6-dimethylphenyl)-3-(3-(4-((1-methylpiperidin-4-yl)oxy)phenyl)-1H-indazol-5-yl)urea]	≤ 5	≤ 5	≤ 5	≤ 5	≤ 5	≤ 5	≤ 5	≤ 5	
O=C(NC(c1ccsc1)C1CCC1)c1ccc2[nH]nc(-c3ccc(N4CCOCC4)cc3)c2c1 (stereo not shown) [Example A123, N-(cyclobutyl(thiophen-3-yl)methyl)-3-(4-morpholinophenyl)-1H-indazole-5-carboxamide]	≤ 5			≤ 5	≤ 5	≤ 5	≤ 5		≤ 5
COc1cc(-c2n[nH]c3ccc(C(=O)NC(c4ccccn4)C4CC4)cc23)ccc1OC1CCN(C2COC2)CC1 (stereo not shown) [Example A195]	≤ 5			≤ 5	≤ 5	≤ 5	≤ 5		≤ 5
O=C(N[C@@H](c1ccccn1)C1CC1)c1ccc2[nH]nc(-c3ccc(OC4CCN(C5COC5)CC4)cc3)c2c1 [Example A196, (R)—N-(cyclopropyl(pyridin-2-yl)methyl)-3-(4-((1-(oxetan-3-yl)piperidin-4-yl)oxy)phenyl)-1H-indazole-5-carboxamide]	≤ 5			≤ 5	≤ 5	≤ 5	≤ 5		≤ 5
